From patent US20240270749A1, “1,2,4-TRIAZOLO[1,5-A]PYRIMIDINE-BASED SLC16A3 INHIBITORS AND THEIR THERAPEUTIC USE” (CEMM - FORSCHUNGSZENTRUM FÜR MOLEKULARE MEDIZIN GMBH, priority 2021, published 2024)
pIC50: −log10 of the molar value.

Each compound was assayed on HAP1 SLC16A1^−/− cells (assay: Synthetic lethality guided viability screening (CellTiter Glo), HAP1 SLC16A1-/- cells (SLC16A3-dependent)). Settings: not given.
Assay type: cell-based
Method: (§1) Compounds were printed to individual wells of 384 well plates (Corning) with Echo acoustic liquid dispenser (Labcyte). HAP1 cells were seeded using a dispenser (Thermo Fischer Scientific) in density 1,000 cells per well in 50 μl. As controls, DMSO or Bortezomib treatments were used. Viability of cells was assessed after 72 hours with CellTiter Glo (Promega) and % of controls were calculated based on RLU values in DMSO (100%) and Bortezomib (0%) wells. First screening was performed in 10 μM final concentration. Second screening was performed in technical duplicates, in 4 point dose response setting, with concentrations ranging from 13-0.5 μM. Third screening was performed in technical triplicates in 6 point dose response setting, with concentrations ranging from 27-0.11 μM. LAMA84 cells were used in density 3,000 cells per well. AZD3965, BAY-8002, syrosingopine and compounds obtained from third party vendors were tested in 96 well plates, with 2,500 cells per well with manual seeding and treatment. Compound efficacy was determined either by comparing % of control, or by IC50 estimation based on dose response curves (calculated with R package drc, or with GraphPad Prism).
(§2) Table 1: Results of synthetic lethality guided chemical screening assay. HAP1 WT, HAP1 SLC16A1^−/− or HAP1 SLC16A3^−/− cell lines were treated with presented compounds for 72 hours and viability was determined by Cell titer glo assay (Promega). Data are presented either as a percentage of viability in HAP1 SLC16A1^−/− cells compared to controls (DMSO=100% and Bortezomib=0%) upon single dose treatment (10 μM) or as IC50 values obtained from dose response curves.

SMILES	effect on viability of HAP1 SLC16A1^−/− cells (in words)
CCOC(=O)Oc1c(OC)cc(C(=O)O[C@@H]2C[C@@H]3CN4CCc5c([nH]c6cc(OC)ccc56)[C@H]4C[C@@H]3[C@H](C(=O)OC)[C@H]2OC)cc1OC [syrosingopine, reference compound]	decreased viability

Same assay, conditions: Homo sapiens, HAP1, 72 h, read-out: HAP1 SLC16A1^−/− % of viability

SMILES	viability at 10 µM
CCOc1ccc(NC(=O)CCc2c(C)nc3nc(C)nn3c2C)cc1 [Compound 15]	38.5%
COc1ccc(NC(=O)CCc2c(C)nc3nc(C)nn3c2C)cc1 [Compound 17]	44.4%

Same assay, conditions: Homo sapiens, HAP1; 72 hours, Cell titer glo, from dose response curves

SMILES	pIC50
Cc1nc2nc(C(F)(F)F)nn2c(C)c1CCC(=O)Nc1ccc(S(=O)(=O)N2CCCC2)cc1 [Compound 6]	6.39
Cc1nc2nc(C(F)(F)F)nn2c(C)c1CCC(=O)Nc1ccncc1 [Compound 7]	4.95
Cc1nc2nc(C(F)(F)F)nn2c(C)c1CCC(=O)Nc1cccnc1 [Compound 18]	5.08
CSc1nc2nc(C)c(CCC(=O)Nc3cc(C)cc(C)c3)c(C)n2n1 [Compound 4]	5.74
Cc1nc2ncnn2c(C)c1CCC(=O)Nc1ccc(S(=O)(=O)N2CCCCCC2)cc1 [Compound 9]	5.70
Cc1cc(NC(=O)CCc2c(C)nc3nc(C(F)(F)F)nn3c2C)ccc1N1CCN(C)CC1 [Compound 5]	5.23
Cc1nc2nc(C(F)(F)F)nn2c(C)c1CCC(=O)Nc1ccccc1 [Compound 19]	5.05
Cc1cc(C)cc(NC(=O)CCc2c(C)nc3nc(C(F)(F)F)nn3c2C)c1 [Compound 2]	5.38

What follows are compounds tested on HAP1 SLC16A3^−/− cells (assay: Synthetic lethality guided viability screening (CellTiter Glo), HAP1 SLC16A3-/- cells (SLC16A1-dependent)). Settings: Homo sapiens, HAP1; 72 hours, Cell titer glo, from dose response curves; read-out: HAP1 SLC16A31^−/− IC50.
Assay type: cell-based
Method: as §1, §2

SMILES	pIC50
Cc1nc2nc(C(F)(F)F)nn2c(C)c1CCC(=O)Nc1ccc(S(=O)(=O)N2CCCC2)cc1 [Compound 6]	< 4.52
Cc1nc2nc(C(F)(F)F)nn2c(C)c1CCC(=O)Nc1ccncc1 [Compound 7]	< 4.52
Cc1nc2nc(C(F)(F)F)nn2c(C)c1CCC(=O)Nc1cccnc1 [Compound 18]	< 4.52
CSc1nc2nc(C)c(CCC(=O)Nc3cc(C)cc(C)c3)c(C)n2n1 [Compound 4]	< 4.52
Cc1nc2ncnn2c(C)c1CCC(=O)Nc1ccc(S(=O)(=O)N2CCCCCC2)cc1 [Compound 9]	< 4.52
Cc1cc(NC(=O)CCc2c(C)nc3nc(C(F)(F)F)nn3c2C)ccc1N1CCN(C)CC1 [Compound 5]	< 4.52
Cc1nc2nc(C(F)(F)F)nn2c(C)c1CCC(=O)Nc1ccccc1 [Compound 19]	< 4.52
Cc1cc(C)cc(NC(=O)CCc2c(C)nc3nc(C(F)(F)F)nn3c2C)c1 [Compound 2]	< 4.52

The compounds below were run on HAP1 WT cells (assay: Synthetic lethality guided viability screening (CellTiter Glo), HAP1 WT cells). Settings: Homo sapiens, 72 hours, Cell titer glo, from dose response curves.
Assay type: cell-based
Method: as §1, §2

SMILES	pIC50
Cc1nc2nc(C(F)(F)F)nn2c(C)c1CCC(=O)Nc1ccc(S(=O)(=O)N2CCCC2)cc1 [Compound 6]	< 4.52
Cc1nc2nc(C(F)(F)F)nn2c(C)c1CCC(=O)Nc1ccncc1 [Compound 7]	< 4.52
Cc1nc2nc(C(F)(F)F)nn2c(C)c1CCC(=O)Nc1cccnc1 [Compound 18]	< 4.52
CSc1nc2nc(C)c(CCC(=O)Nc3cc(C)cc(C)c3)c(C)n2n1 [Compound 4]	< 4.52
Cc1nc2ncnn2c(C)c1CCC(=O)Nc1ccc(S(=O)(=O)N2CCCCCC2)cc1 [Compound 9]	< 4.52
Cc1cc(NC(=O)CCc2c(C)nc3nc(C(F)(F)F)nn3c2C)ccc1N1CCN(C)CC1 [Compound 5]	< 4.52
Cc1nc2nc(C(F)(F)F)nn2c(C)c1CCC(=O)Nc1ccccc1 [Compound 19]	< 4.52
Cc1cc(C)cc(NC(=O)CCc2c(C)nc3nc(C(F)(F)F)nn3c2C)c1 [Compound 2]	< 4.52
